Earlier results in US7144595B2, “Prepared foods containing triglyceride-recrystallized non-esterified phytosterols” (Brandeis University, priority 2001, dated 2006).

System: humans

Structure (SMILES)	lowering of serum cholesterol (12–18 g per day in divided doses, males with atherosclerosis (Faquhar 1956))	decrease of plasma cholesterol level (9–18 grams per day, coarse powdered form)
CC[C@H](CC[C@@H](C)[C@H]1CC[C@H]2[C@@H]3CC=C4C[C@@H](O)CC[C@]4(C)[C@H]3CC[C@]12C)C(C)C [beta sitosterol]	15–20%	
CC[C@H](CC[C@@H](C)[C@H]1CC[C@H]2[C@@H]3CC=C4C[C@@H](O)CC[C@]4(C)[C@H]3CC[C@]12C)C(C)C [sitosterol]		approximately 15%
